# Experimental data published in US20160128988A1, “COMBINATIONS FOR THE TREATMENT OF CANCER COMPRISING A MPS-1 KINASE INHIBITOR AND A MITOTIC INHIBITOR” (BAYER PHARMA AKTIENGESELLSCHAFT, priority 2013, published 2016).
# Where two headings read alike, the source gives them in different places. Marks after values point to notes of the source that are not given here.
# What was measured:
# [1] = tested on: NCI-H1299 human NSCLC xenograft tumors; conditions: Compound A1 2 mg/kg 2QD 2on/5off p.o., docetaxel 15 mg/kg QD 1on/6off i.v.; for T/C area: relative mean tumor area, 20 treatment days
# Text: The effect of combination treatment of an Mps-1 kinase inhibitor (Compound A1) with docetaxel, another SAC activating, […], anti-mitotic agent, used as standard of care in NSCLC patients, was studied in the NCI-H1299 taxane intrinsically resistant human lung carcinoma (NSCLC) xenograft model in nude mice.
# Docetaxel was applied intravenously once per week upon its respective MTD. Substances were formulated in optimal vehicles to achieve solutions. Animal body weight and tumor size were determined two times weekly. […] For combination treatment Compound A1and docetaxel were applied at the same day within a time frame of 4 hours. Animals of control and Mps-1 kinase inhibitor monotherapy group were treated for a duration of 20 days. Animals of docetaxel monotherapy and docetaxel/Mps-1 kinase inhibitor combination treatment groups were treated for a duration of 42 days. At the end of the study after one final treatment plasma and tumors were sampled for PK analysis and final tumor weight was determined.
# (§1) NCI-H1299 human NSCLC tumor cells were implanted s.c. into nude mice on day 0. […] Compound A1 was administered orally (p.o.) upon 2.0 mg/kg twice daily (2QD) for 2 days on/5 days off (2 on/5 off) in monotherapy and in combination with docetaxel. Docetaxel was administered intravenously (i.v.) upon 15 mg/kg once daily (QD) once per week (1 on/6 off) in monotherapy and combination therapy. Tumor growth was monitored by determination of the tumor area using calliper measurement two to three times weekly. FIG. 2A: Time course of tumor growth. FIG. 2B: Weight of tumors in docetaxel/Mps-1 kinase inhibitor combination group at the end of the study at day 52 after tumor cell inoculation. FIG. 2C: Time course of animal body weight change during the course of the study.
# [2] = Maximum tolerated dose (MTD); format: in vivo, nude mice
# [3] = tested on: human glioblastoma model U87 MG; assay: Combination with vincristine in human glioblastoma model U87 MG (intracerebral); format: in vivo, nude mice
# Experimental: The study was designed to determine the response of this glioblastoma model to the treatment with the investigational Compound A1 and vincristine, both alone at a fixed dose, and vincristine in combination with two different doses, both lower than that of Compound A1 used in the monotherapy schedule. The size of the glioblastoma was used as read out parameter for response.
# The cell culture derived human xenograft U87 MG was initiated by transplantation of the tumor cells into the left hemisphere of the mouse brain. Treatment was done in three cycles between day 3 and day 19. Mice were sacrificed at day 24, the brain isolated and shock frozen in 2 methyl-butane. Tumor size were determined as measure for tumor growth inhibition from cryo-slizes after staining.
# [4] = tested on: NCI-H1299 human NSCLC xenograft tumors; conditions: Compound A1 0.45 mg/kg 2QD 2on/5off p.o., paclitaxel 20 mg/kg QD 1on/6off i.v.; for T/C area: relative mean tumor area, 28 treatment days
# Experimental: The effect of combination treatment of an Mps-1 inhibitor and paclitaxel was studied in the NCI-H1299 taxane intrinsically resistant human lung carcinoma (NSCLC) xenograft model in nude mice.
# (§2) Paclitaxel was applied intravenously once per week upon its respective MTD. Substances were formulated in optimal vehicles to achieve solutions. Animal body weight and tumor size were determined two to three times weekly. […] For combination treatment, the Compound A1 and paclitaxel were applied at the same day within a time frame of 4 hours. Animals of control and monotherapy group (Compound A1 only) were treated for a duration of 28 days. Animals of paclitaxel monotherapy and paclitaxel/Mps-1 inhibitor treatment groups were treated for a duration of 37 days. At the end of the study after one final treatment plasma and tumors were sampled for PK analysis and final tumor weight was determined.
# as §1, with “FIGS. 1A and 1B show the response of NCI-H1299 human NSCLC xenograft tumors to treatment with Compound A1 in combination with paclitaxel. NCI-H1299” for “NCI-H1299”, “0.45” for “2.0”, “paclitaxel. Paclitaxel” for “docetaxel. Docetaxel”, “20” for “15”, “1A:” for “2A:”, “1B:” for “2B: Weight of tumors in docetaxel/Mps-1 kinase inhibitor combination group at the end of the study at day 52 after tumor cell inoculation. FIG. 2C:”
# [5] = tested on: MDA-MB 231 human triple-negative breast cancer xenograft tumors; conditions: Compound A1 1 mg/kg 2QD 2on/5off p.o., paclitaxel 20 mg/kg QD 1on/6off i.v.; for T/C area: relative mean tumor area, 28 treatment days
# Experimental: The effect of combination treatment of an Mps-1 kinase inhibitor (Compound A1) and paclitaxel was studied in the MDA-MB 231 human triple-negative (no expression of Her2/neu, progesterone receptor, estrogen receptor) xenograft model in nude mice.
# as §2, with “determined” for “determined two to”, “treatment,” for “treatment, the”, “paclitaxel/Mps-1 kinase” for “paclitaxel/Mps-1”, “50” for “37”
# MDA-MB 231 human breast cancer cells were implanted s.c. into nude mice on day 0. […] Compound A1 was administered orally (p.o.) upon 1 mg/kg twice daily (2QD) for 2 days on/5 days off (2 on/5 off) in monotherapy and in combination with paclitaxel. Paclitaxel was administered intravenously (i.v.) upon 20 mg/kg once daily (QD) once per week (1 on/6 off) in monotherapy and combination therapy. Tumor growth was monitored by determination of the tumor area using calliper measurement three times weekly. FIG. 3A: Time course of tumor growth. FIG. 3B: Weight of tumors in paclitaxel/Mps-1 kinase inhibitor combination group at the end of the study at day 73 after tumor cell inoculation. FIG. 3C: Time course of animal body weight change during the course of the study.
# [6] = tested on: primary human NSCLC xenograft model LU387; assay: Combination with paclitaxel in primary human NSCLC xenograft model LU387; format: in vivo, nude mice; conditions: day 42; paclitaxel 20 mg/kg IV QW for 6 weeks, alone or in combination with Compound A1
# Experimental: The effect of Compound A1 and paclitaxel compared with a vehicle was evaluated in the subcutaneous primary human NSCLC xenograft model LU387 on nude mice.
# [7] = tested on: IGR-OV1 human ovarian carcinoma model
# Experimental: Paclitaxel was administered IV QW at 50% of its respective MTD.
# A2780cis xenograft model = tested on: A2780cis xenograft model
# Experimental: The effect of the combination treatment of Compound A1 with paclitaxel was studied in a human ovarian carcinoma model in nude mice, namely in the adaptive cisplatin-resistant and paclitaxel intrinsically-resistant A2780cis xenograft model. […] Paclitaxel was administered IV QW at its respective MTD.
# [8] = tested on: MKN1 human gastric carcinoma model; conditions: mouse, in vivo
# Experimental: (§3) Compound A1 was administered PO in the 2QD intermittent (2 days on/5 days off) dosing schedule up to the respective MTD in single-agent treatment and at a dose of 40% of the single-agent MTD in combination. Paclitaxel was administered IV QW at its respective MTD. Treatment for all groups started at a tumor size of 27 mm^2, on day 7 after tumor cell inoculation. For combination treatment, Compound A1 and paclitaxel were administered on the same day within a time of 4 hours. Animals of the control and Compound A1 single-agent treatment groups were treated for 40 days. Animals of the paclitaxel single-agent and Compound A1 with paclitaxel combination treatment groups were treated for 78 days.
# [9] = tested on: cisplatin-resistant ovarian cancer cells A2780cis; assay: Mode of action: histopathology of A2780cis tumors after treatment
# Experimental: To explain in vivo the mode of action of an Mps-1 kinase inhibitor in single-agent treatment and combination treatment with a taxane, female NMRI (Naval Medical Research Institute) nude mice were implanted with cisplatin-resistant ovarian cancer cells A2780cis.
# Paclitaxel was administered IV (intravenous(ly)) QW (once per week (meaning the 1 day on/6 days off treatment schedule)) at its MTD (24 mg/kg) in single-agent and combination treatments. […] Tumors were embedded in paraffin, sections were prepared and stained with hematoxylin & eosin for histopathological analysis.
# [10] = tested on: MKN1 human gastric carcinoma model; assay: Combination with paclitaxel in MKN1 human gastric carcinoma model
# Experimental: as §3
# [11] = day 24, single agents: Gr. B Compound A1 2.5 mg/kg p.o., Gr. C Vincristine 0.75 mg/kg i.p.
# [12] = after 78 treatment days, paclitaxel 24 mg/kg IV QW
smiles,measurement,setting,value
"CC(=O)O[C@@]12CO[C@@H]1C[C@H](O)[C@@]1(C)C(=O)[C@H](O)C3=C(C)[C@@H](OC(=O)[C@H](O)[C@@H](NC(=O)OC(C)(C)C)c4ccccc4)C[C@@](O)([C@@H](OC(=O)c4ccccc4)[C@H]21)C3(C)C [Docetaxel, 1,7β,10β-trihydroxy-9-oxo-5β,20-epoxytax-11-ene-2α,4,13α-triyl 4-acetate 2-benzoate 13-{(2R,3S)-3-[(tert-butoxycarbonyl)amino]-2-hydroxy-3-phenylpropanoate}, reference compound]",Fatal Tox,[1],0/8
same,Max. Body weight loss (%),[1],−2%
same,T/C area,[1],0.16^#
same,T/C area,[1]; listed as docetaxel,0.16
same,MTD,"[2]; nude, mouse, in vivo, Compound A1 PO 2QD 2 days on/5 days off, paclitaxel IV QW, docetaxel i.v. 1 day on/6 days off, read-out: MTD (maximum tolerated dose), single-agent",15 mg/kg
"CC[C@]1(O)C[C@H]2CN(CCc3c([nH]c4ccccc34)[C@@](C(=O)OC)(c3cc4c(cc3OC)N(C=O)[C@H]3[C@@](O)(C(=O)OC)[C@H](OC(C)=O)[C@]5(CC)C=CCN6CC[C@]43[C@@H]65)C2)C1 [Vincristine, vincristine, reference compound]",inhibition of tumor growth,"[3]; Gr. C vincristine alone, Gr. D combination of high dose Compound A1 and vincristine",38.6%
same,Brain tumor inside [mm^2],"[3]; day 24, single agents: Gr. B Compound A1 2.5 mg/kg p.o. BIDx2x3, Gr. C Vincristine 0.75 mg/kg i.p. 1xqWx3",10.69 +/− 6.71 mm^2
same,Brain tumor outside [mm^2],[3]; [11],4.50 +/− 1.66 mm^2
same,Brain tumor total [mm^2],[3]; [11],13.26 +/− 7.25 mm^2
same,T/C (inside T) [%],[3]; [11],61.4%
"CC(=O)O[C@H]1C(=O)[C@@]2(C)[C@H]([C@H](OC(=O)c3ccccc3)[C@]3(O)C[C@H](OC(=O)[C@H](O)[C@@H](NC(=O)c4ccccc4)c4ccccc4)C(C)=C1C3(C)C)[C@]1(OC(C)=O)CO[C@@H]1C[C@@H]2O [Paclitaxel, (2α,4α,5β,7β,10β,13α)-4,10-bis(acetyloxy)-13-{[(2R, 3S)-3-(benzoylamino)-2-hydroxy-3-phenylpropanoyl]oxy}-1,7-dihydroxy-9-oxo-5,20-epoxytax-11-en-2-yl benzoate, reference compound]",Fatal Tox,[4],0/10
same,T/C area,[4],0.28^#
same,T/C area,[4]; listed as paclitaxel,0.28
same,Fatal Tox,[5],0/10
same,T/C area,[5],0.14^#
same,T/C area,[5]; listed as paclitaxel,0.14
same,mean tumor size,[6],1494 mm^3
same,relative T/Carea,"[7]; 38 treatment days, Compound A1 single agent 2.5 mg/kg PO 2QD, paclitaxel 12 mg/kg IV QW, combination with Compound A1 2 mg/kg PO 2QD",0.34
same,anti-tumor efficacy (in words),"[7]; Compound A1 2.5 mg/kg single agent (38 days), paclitaxel 12 mg/kg and combination with Compound A1 2 mg/kg (treatment day 38 to 59)",clear tumor progression
same,tolerability (in words),"[7]; mouse, in vivo",well tolerated without critical body weight loss or toxicities
same,relative T/Carea,"A2780cis xenograft model; 14 treatment days, Compound A1 1 mg/kg PO 2QD 2 days on/5 days off, paclitaxel 24 mg/kg IV QW",0.09
same,tolerability (in words),"A2780cis xenograft model; mouse, in vivo",well tolerated without critical body weight loss or toxicities
same,"MTD (maximum tolerated dose), single-agent","[2]; paclitaxel i.v. 1 day on/6 days off, as stated for the NCI-H1299 study",20 mg/kg
same,tolerability (in words),[8],overall well tolerated without critical body weight loss
same,histopathological phenotype of tumor tissue,"[9]; paclitaxel 24 mg/kg IV QW single agent, 4 and 8 hours after treatment",induced atypical mitoses
same,histopathological phenotype of tumor tissue,"[9]; paclitaxel 24 mg/kg IV QW single agent, 28, 32 and 48 hours after treatment",increased necrosis and apoptosis
same,relative T/Carea,"[10]; 40 treatment days, paclitaxel 24 mg/kg IV QW, combination with Compound A1 1 mg/kg PO 2QD 2 days on/5 days off",0.05
same,partial regression (% of tumors),[10]; [12],20%
same,tumor growth delay (% of tumors),[10]; [12],80%
same,anti-tumor efficacy (in words),"[10]; mouse, in vivo",overall disease stabilization
same,Fatal toxicity (number of animals),"[10]; paclitaxel group: Treatment Day 57, combination group: after the first treatment cycle",1
